In patent US11078201B2, “Substituted isoindolin-1-ones and 2,3-dihydro-1H-pyrrol[3,4-c]pyridin-1-ones as HPK1 antagonists” (Nimbus Saturn, Inc., priority 2019, dated 2021):

Biological target: HPK1 (Homo sapiens (Human), UniProt Q92918)
Experiment: HPK1 biochemical enzyme assay (microfluidic mobility shift assay)
Settings: 1.5 nM HPK1, ATP 1 mM final, 60 min at RT, Caliper EZ Reader; read-out: HPK1 1000UMATP caliper IC50
Method: HPK1 biochemical enzyme assay: HPK1 enzyme inhibition was measured using a microfluidic mobility shift assay. […] Test compounds were titrated in ten point curves (top final assay concentration […]), and preincubated with enzyme/substrate mix for 30 min prior to initiation of the reaction by addition of ATP (1 mM final concentration) and substrate (1 μM final concentration; Carna Biosciences) diluted in assay buffer supplemented by MgCl2 (final assay concentration of 5 mM). Following 60 min incubation at RT, the reaction was terminated by addition of 60 µl/well termination buffer (Carna Biosciences) and signal determination using a Caliper EZ Reader (Perkin Elmer, UK).
The compound numbers correspond to the compound numbers in Table 1.

HPK1, sequence (Q92918 whole entry): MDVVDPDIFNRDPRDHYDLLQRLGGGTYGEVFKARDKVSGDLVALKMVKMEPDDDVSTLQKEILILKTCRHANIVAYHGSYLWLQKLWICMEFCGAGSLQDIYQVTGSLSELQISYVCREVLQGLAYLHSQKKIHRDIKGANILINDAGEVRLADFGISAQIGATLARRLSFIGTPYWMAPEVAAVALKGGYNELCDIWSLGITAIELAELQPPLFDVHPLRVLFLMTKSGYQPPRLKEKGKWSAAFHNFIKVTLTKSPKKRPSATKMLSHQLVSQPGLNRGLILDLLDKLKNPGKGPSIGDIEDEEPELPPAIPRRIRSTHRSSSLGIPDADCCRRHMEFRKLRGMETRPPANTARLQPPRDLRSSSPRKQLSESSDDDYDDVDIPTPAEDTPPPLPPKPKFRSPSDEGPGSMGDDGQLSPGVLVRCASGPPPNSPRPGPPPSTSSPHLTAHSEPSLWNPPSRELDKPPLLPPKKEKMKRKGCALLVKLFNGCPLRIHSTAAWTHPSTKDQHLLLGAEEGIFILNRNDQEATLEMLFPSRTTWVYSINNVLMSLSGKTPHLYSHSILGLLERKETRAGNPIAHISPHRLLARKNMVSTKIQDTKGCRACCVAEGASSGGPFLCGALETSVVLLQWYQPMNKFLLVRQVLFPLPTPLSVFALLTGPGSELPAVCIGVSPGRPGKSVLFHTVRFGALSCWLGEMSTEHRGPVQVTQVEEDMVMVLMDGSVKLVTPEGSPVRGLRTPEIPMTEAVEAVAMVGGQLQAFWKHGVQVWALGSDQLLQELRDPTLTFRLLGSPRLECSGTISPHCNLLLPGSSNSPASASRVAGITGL

Substance	IC50
4-(8-fluoro-7- methyl-imidazo[1,2- a]pyridin-3- yl)-7-[[5- (morpholino- methyl)-2- pyridyl]amino] isoindolin-1-one [I-468]	< 100 nM
4-[7-(hydroxymeth- yl)imidazo[1,2- a]pyridin-3- yl]-7-[(5- morpholino-2- pyridyl)amino] isoindolin-1-one [I-196]	< 100 nM
